Here are results for three compounds from US20250107999A1, “INJECTABLE FORMULATION CONTAINING ISOXAZOLINE DERIVATIVE” (LG CHEM, LTD., priority 2022, published 2025).

A short description of data set [1]: Change in content of active compound of Formula 2 over time according to solvent pH (FIG. 1). Type of data set: physicochemical. The method, then:
In addition, after dissolving the API in solvents, the change in the content of the active compound of Formula 2 was measured over time.

The next data set has as its system caspase. As to the kind of experiment: Caspase inhibitory activity. Type of data set: biochemical.
Data set [2] in a line: API stability in solution (solvent of Example 23, HPLC). Type of data set: physicochemical. The following applies: 10 mg/ml API. As to the method: Therefore, in order to measure the content of the active form in the solution after preparing the injection, 10 mg/ml of API was dissolved using the solvent of Example 23, and the concentration and purity of the active API (Compound of Formula 2), which changed over time, were measured using HPLC until 60 minutes after dissolution.

The nature of data set [3]: Confirmation of API solubility according to solvent pH (24 hours, HPLC). Type of data set: physicochemical.

As for `CC(C)[C@@]1(C(=O)N[C@H](CC(=O)O)C(=O)CF)CC(c2nccc3ccccc23)=NO1` [compound of Formula 3], the “conversion of compound of Formula 2 into compound of Formula 3” value in data set [1] (acidic solvent) is listed as “hardly produced”; in data set [1] (basic solvent with a neutral pH or higher), “rapidly produced”. Besides, the caspase inhibitory activity entry in the data set with caspase is “does not show caspase inhibitory activity”.

As for `CC(C)[C@@]1(C(=O)N[C@@H](CC(=O)O)C(=O)CF)CC(c2nccc3ccccc23)=NO1` [compound of Formula 2], the caspase inhibitory activity entry in the data set with caspase is on record as “active form”.

On to `CC(C)[C@@]1(C(=O)NC2CC(=O)OC2(O)CF)CC(c2nccc3ccccc23)=NO1` (stereo in doubt) [compound of Formula 1, (R)-N-((2S,3S)-2-(fluoromethyl)-2-hydroxy-5-oxotetrahydrofuran-3-yl)-5-isopropyl-3-(isoquinolin-1-yl)-4,5-dihydroisoxazol-5-carboxamide], for which the results for the “Peak Area Active” value in data set [2] (30 min after mixing) and in data set [2] (60 min after mixing) were “about 95.5%” and 94.18%, respectively. Further, the “Peak Area Inactive” value in data set [2] (30 min after mixing) is listed as 4.33%; in data set [2] (60 min after mixing), 5.59%. Further, the results for the solubility entry in data set [3] (acidic solvents with a pH of 4 or less), in data set [3] (basic solvents with a pH of 7.5 or more) and in data set [3] (weakly acidic solvents with a pH of 6 or more) were “hardly soluble”, “well soluble” and “began to dissolve”, respectively.
